Data reported in article PMC12051620, “Molecular basis underlying the specificity of an antagonist AA92593 for mammalian melanopsins” (The Journal of Biological Chemistry, 2025).

Test system: lanceolatum melanopsin WT
Experiment: GsX GloSensor assay with Gsα/q11
Assay type: cell-based, Branchiostoma lanceolatum
Details: 16.7 μM AA92593, COS-1 cells
Description: Non-mammalian-type melanopsins were successfully converted into AA92593-susceptible types by introducing Phe-94^2.61/Ser-188^ECL2/Ser-269^6.52 or Phe-207^5.42 (Fig. 6). We attempted to extend the functional conversion targets to invertebrate melanopsin (see Fig. S2). […] We assessed the susceptibility of belcheri and lanceolatum melanopsins to AA92593 using the GsX GloSensor assay with Gsα/q11. In the absence of AA92593, the belcheri melanopsin produced smaller light-dependent cAMP responses than the other melanopsins assessed in this study (Fig. 7A), whereas the lanceolatum melanopsin produced robust cAMP responses upon light illumination (Fig. 7B). […] On the other hand, responses by the lanceolatum melanopsin were insensitive to the antagonist (Fig. 7B), similar to non-mammalian-type melanopsins (Fig. 6, A and D). […]
For GloSensor assay, opsins, GloSensor assay sensor (coded by pGlo-22F), and NanoBiT-tagged G proteins were transiently expressed in COS-1 cells (kindly provided from Dr David Farrens, Oregon Health and Science University) using PEI as described previously ([24], [52]). […] For GFP-fluorescence microscopy, a 35-mm cell culture dish (IWAKI) was transfected with 2 μg melanopsin-GFP plasmid and 8 μg PEI in 400 μl Opti-mem and 1.2 ml D-MEM. […]

## COc1ccc(S(=O)(=O)N2CCCCC2)cc1C [AA92593]
  sensitivity of light-induced responses to the antagonist: insensitive
